For 15 molecules, GI50 and TGI results are on record in PubChem BioAssay (NCI).

SMILES strings stand for the structures. Several values for one entry are separate records, joined by “and”; a condition that tells them apart may be missing. Equal values may be shown once.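 Values below derive from 48-hour exposures of cells grown in 96-well plates, with endpoints linearly interpolated between the two concentrations bracketing the appropriate inhibition level. GI50 is the concentration that inhibits growth by half. Definition used: TGI = concentration required for complete inhibition of growth.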

Among the test systems are MDA-MB-435; HS 578T breast; DU-145 prostate; MCF7 breast; BT-549 breast; M19-MEL melanoma; DMS 273 small cell lung; KM20L2 colon; SNB-78 CNS; XF 498 CNS; LXFL 529 NSCLC; DLD-1 colon; DMS 114 small cell lung.
Common to all, as to assay: DTP human tumour cell line panel, 48 h

For orientation: GI50 means the concentration that inhibits growth by half. Usually TGI stands for the concentration at which net growth stops. A lower TGI goes with more potent growth arrest. Consider `COCCOCCOCc1n(Cc2ccc3ccccc3c2)c2ccccc2[n+]1Cc1ccc2ccccc2c1`, for which the GI50 with MDA-MB-435 is 0.282 µM; in the assay with HS 578T breast, 1.14 µM; in the assay with DU-145 prostate, 0.766 µM; with MCF7 breast it was 0.325 µM; in the assay on BT-549 breast, 0.366 µM. For the same molecule, the TGI turned out to be 1.23 µM in the assay on MDA-MB-435; 2.96 µM in the assay with HS 578T breast; 2.14 µM in the assay on DU-145 prostate; 1.45 µM in the assay on MCF7 breast; 1.53 µM in the assay on BT-549 breast.

`Nc1nonc1-c1nc2ccccc2n1Cc1ccc(F)cc1`: the GI50 in the assay on MDA-MB-435 was 1.87 µM; in the assay on HS 578T breast, 3.18 µM; with DU-145 prostate it was above 100 µM; in the assay with MCF7 breast it was 3.78 µM; in the assay with BT-549 breast, 9.8 µM. In addition, the TGI with MDA-MB-435 is 5.89 µM; in the assay on HS 578T breast, above 100 µM; in the assay on DU-145 prostate it was above 100 µM; with MCF7 breast, above 100 µM; in the assay on BT-549 breast it was above 100 µM.

On to `CCc1cccc(C(C)C)c1NC(=O)CCl`, for which the total growth inhibition concentration (TGI) in the assay with M19-MEL melanoma, in the assay on DMS 273 small cell lung, with KM20L2 colon, in the assay on SNB-78 CNS, in the assay on XF 498 CNS and with LXFL 529 NSCLC was above 100 µM in each case. Moreover, in the assay with DLD-1 colon, the TGI was above 100 µM.

With `Cc1coc2c1C(=O)C(=O)c1ccccc1-2`, the TGI turned out to be 3.33 µM in the assay with DMS 273 small cell lung; 11.2 µM in the assay with KM20L2 colon; 3.13 µM in the assay on SNB-78 CNS; 1.41 µM in the assay with LXFL 529 NSCLC; 0.326 µM in the assay on DMS 114 small cell lung; 4.26 µM in the assay on DLD-1 colon.

For `Cc1ccc(S(=O)(=O)N2CCCSCCSCCCN(S(=O)(=O)c3ccc(C)cc3)CC2)cc1`, the TGI in the assay on MDA-MB-435, with HS 578T breast, in the assay on DU-145 prostate, in the assay on MCF7 breast and with BT-549 breast was above 100 µM each time.

With `CCN(CC)c1c(-c2ccccc2)n[nH]c1C(=O)OC`, the GI50 in the assay on MDA-MB-435 is 20.1 µM; in the assay on HS 578T breast, 17 µM; with DU-145 prostate, 36.9 µM; in the assay on MCF7 breast it was 23.1 µM; in the assay with BT-549 breast it was 16.4 µM. Besides, the TGI was 55.6 µM in the assay with MDA-MB-435; 49.4 µM with HS 578T breast; above 100 µM with DU-145 prostate; 54.4 µM in the assay with MCF7 breast; 51.1 µM in the assay with BT-549 breast.

For `COc1cc(Cl)cc(-c2nn(-c3cccc(NC(=O)Nc4cccc(C(F)(F)F)c4)c3)cc2-c2ccncc2)c1`, the GI50 in the assay with MDA-MB-435 is 1.74 µM; with HS 578T breast, 4.06 µM; in the assay on DU-145 prostate, 2.61 µM; in the assay on MCF7 breast, 1.48 µM; in the assay on BT-549 breast, 2.22 µM. Moreover, the TGI in the assay on MDA-MB-435 is 3.82 µM; with HS 578T breast, above 100 µM; in the assay with DU-145 prostate it was above 100 µM; with MCF7 breast it was 7.57 µM; in the assay with BT-549 breast, 5.6 µM.

Consider `Cc1c(Cl)c(=O)oc2cc(OC/C=C3\CCC(=O)O3)ccc12`, for which the GI50 is 25.3 µM in the assay on MDA-MB-435; 24.2 µM in the assay with HS 578T breast; 14 µM with DU-145 prostate; 13.4 µM in the assay on MCF7 breast; 15.7 µM in the assay with BT-549 breast. For the same molecule, the TGI in the assay with MDA-MB-435 was 96.3 µM; in the assay with HS 578T breast, 77.4 µM; with DU-145 prostate it was 29.4 µM; with MCF7 breast it was 37.8 µM; in the assay on BT-549 breast, 32 µM.

Regarding `CC1=C(/C=C/C(=O)CC(=O)/C=C/C2=C(C)CCCC2(C)C)C(C)(C)CCC1`, the GI50 is 38.1 µM in the assay on MDA-MB-435; 14.7 µM with HS 578T breast; 14.3 µM in the assay with DU-145 prostate; 22.7 µM in the assay on MCF7 breast; 33.9 µM in the assay on BT-549 breast. The TGI is above 100 µM in the assay on MDA-MB-435; 68.4 µM in the assay with HS 578T breast; above 100 µM in the assay with DU-145 prostate; 72.9 µM in the assay on MCF7 breast; above 100 µM with BT-549 breast.

With `COc1cccc(-c2nn(-c3ccccc3)cc2-c2ccnc(NCCCNC(=O)c3cccc(C(F)(F)F)c3)c2)c1`, the GI50 is 3.27 µM in the assay on MDA-MB-435; 5.6 µM in the assay with HS 578T breast; 8.72 µM in the assay on DU-145 prostate; 3.54 µM in the assay on MCF7 breast; 2.84 µM in the assay on BT-549 breast. Further, the TGI in the assay with MDA-MB-435 turned out to be 17.1 µM; with HS 578T breast it was 36.9 µM; in the assay with DU-145 prostate, 66.3 µM; with MCF7 breast it was 18.5 µM; in the assay with BT-549 breast, 9 µM.

Consider `CC(C)(C)OC(=O)NCCCCn1c2c(c3ccccc3c1=O)C(=O)c1ccccc1-2`, for which the GI50 in the assay on MDA-MB-435 is 35.3 µM; in the assay with HS 578T breast, 20.9 µM; in the assay on DU-145 prostate, 9.59 µM; with MCF7 breast it was 21.3 µM; in the assay on BT-549 breast it was 24.5 µM. In addition, the TGI was above 100 µM with MDA-MB-435; 52.8 µM with HS 578T breast; above 100 µM in the assay with DU-145 prostate; above 100 µM in the assay on MCF7 breast; 80.6 µM with BT-549 breast.

With `O=c1[nH]c2cc([N+](=O)[O-])ccc2nc1/C(=N/Nc1ccccc1)C(O)c1ccco1` (stereo not given), the TGI in the assay with M19-MEL melanoma, in the assay with DMS 273 small cell lung, in the assay on KM20L2 colon, in the assay with XF 498 CNS, in the assay with LXFL 529 NSCLC and in the assay with DMS 114 small cell lung was above 100 µM each time. In addition, the TGI with DLD-1 colon was above 100 µM.

As to `CCOC(=O)C(Cc1c[nH]c2cc(N(CCO)CCO)ccc12)(NC(C)=O)C(=O)OCC`, the GI50 in the assay on MDA-MB-435 is 34.6 µM and 50.1 µM; in the assay on HS 578T breast it was 246 µM; with DU-145 prostate, 391 µM; with MCF7 breast it was 26.6 µM and 135 µM; with BT-549 breast, 69.3 µM and 459 µM. The TGI in the assay on MDA-MB-435 is 200 µM; with HS 578T breast, 808 µM; with DU-145 prostate, above 1000 µM; in the assay with MCF7 breast, 815 µM; in the assay on BT-549 breast, above 1000 µM.

Turning to `O=C(O)C1CC=CCC1C(=O)Nc1cccc(O)c1` (stereo not given), the TGI in the assay with MDA-MB-435, in the assay with HS 578T breast, in the assay with DU-145 prostate, in the assay with MCF7 breast and with BT-549 breast was above 100 µM throughout.

As to `CN1CCN(c2ccc(OC(F)(F)F)c(Nc3ncc4c(n3)-c3c(c(C(N)=O)nn3CCO)CC4)c2)CC1`, the GI50 was 0.0165 µM and 0.0188 µM in the assay with MDA-MB-435; 0.164 µM and 0.184 µM in the assay with HS 578T breast; 0.0349 µM and 0.0417 µM in the assay on DU-145 prostate; 0.0235 µM and 0.0357 µM in the assay on MCF7 breast; 0.0875 µM and 0.176 µM with BT-549 breast. Moreover, the TGI with MDA-MB-435 was 0.0542 µM and 0.0634 µM; with HS 578T breast, 18.5 µM and > 5 µM; in the assay with DU-145 prostate, above 100 µM; with MCF7 breast, 15.7 µM and > 10 µM; in the assay with BT-549 breast it was 18 µM and > 10 µM.
